Laboratory results taken from ChEMBL document CHEMBL5154675, “Design, Synthesis, and Biological Evaluation of 1-(Indolizin-3-yl)ethan-1-ones as CBP Bromodomain Inhibitors for the Treatment of Prostate Cancer” (J Med Chem, 2022).

Tests used:
[1] = biological target: T1, CREB-binding protein (Homo sapiens, UniProt Q92793); assay: Inhibition of His6-tagged human CBP bromodomain (1081 to 1197 residues) expressed in Escherichia coli BL21 (DE3) incubated for 30 mins by HTRF assay
Target sequence in this assay (Q92793 whole entry, the tested form may be a part): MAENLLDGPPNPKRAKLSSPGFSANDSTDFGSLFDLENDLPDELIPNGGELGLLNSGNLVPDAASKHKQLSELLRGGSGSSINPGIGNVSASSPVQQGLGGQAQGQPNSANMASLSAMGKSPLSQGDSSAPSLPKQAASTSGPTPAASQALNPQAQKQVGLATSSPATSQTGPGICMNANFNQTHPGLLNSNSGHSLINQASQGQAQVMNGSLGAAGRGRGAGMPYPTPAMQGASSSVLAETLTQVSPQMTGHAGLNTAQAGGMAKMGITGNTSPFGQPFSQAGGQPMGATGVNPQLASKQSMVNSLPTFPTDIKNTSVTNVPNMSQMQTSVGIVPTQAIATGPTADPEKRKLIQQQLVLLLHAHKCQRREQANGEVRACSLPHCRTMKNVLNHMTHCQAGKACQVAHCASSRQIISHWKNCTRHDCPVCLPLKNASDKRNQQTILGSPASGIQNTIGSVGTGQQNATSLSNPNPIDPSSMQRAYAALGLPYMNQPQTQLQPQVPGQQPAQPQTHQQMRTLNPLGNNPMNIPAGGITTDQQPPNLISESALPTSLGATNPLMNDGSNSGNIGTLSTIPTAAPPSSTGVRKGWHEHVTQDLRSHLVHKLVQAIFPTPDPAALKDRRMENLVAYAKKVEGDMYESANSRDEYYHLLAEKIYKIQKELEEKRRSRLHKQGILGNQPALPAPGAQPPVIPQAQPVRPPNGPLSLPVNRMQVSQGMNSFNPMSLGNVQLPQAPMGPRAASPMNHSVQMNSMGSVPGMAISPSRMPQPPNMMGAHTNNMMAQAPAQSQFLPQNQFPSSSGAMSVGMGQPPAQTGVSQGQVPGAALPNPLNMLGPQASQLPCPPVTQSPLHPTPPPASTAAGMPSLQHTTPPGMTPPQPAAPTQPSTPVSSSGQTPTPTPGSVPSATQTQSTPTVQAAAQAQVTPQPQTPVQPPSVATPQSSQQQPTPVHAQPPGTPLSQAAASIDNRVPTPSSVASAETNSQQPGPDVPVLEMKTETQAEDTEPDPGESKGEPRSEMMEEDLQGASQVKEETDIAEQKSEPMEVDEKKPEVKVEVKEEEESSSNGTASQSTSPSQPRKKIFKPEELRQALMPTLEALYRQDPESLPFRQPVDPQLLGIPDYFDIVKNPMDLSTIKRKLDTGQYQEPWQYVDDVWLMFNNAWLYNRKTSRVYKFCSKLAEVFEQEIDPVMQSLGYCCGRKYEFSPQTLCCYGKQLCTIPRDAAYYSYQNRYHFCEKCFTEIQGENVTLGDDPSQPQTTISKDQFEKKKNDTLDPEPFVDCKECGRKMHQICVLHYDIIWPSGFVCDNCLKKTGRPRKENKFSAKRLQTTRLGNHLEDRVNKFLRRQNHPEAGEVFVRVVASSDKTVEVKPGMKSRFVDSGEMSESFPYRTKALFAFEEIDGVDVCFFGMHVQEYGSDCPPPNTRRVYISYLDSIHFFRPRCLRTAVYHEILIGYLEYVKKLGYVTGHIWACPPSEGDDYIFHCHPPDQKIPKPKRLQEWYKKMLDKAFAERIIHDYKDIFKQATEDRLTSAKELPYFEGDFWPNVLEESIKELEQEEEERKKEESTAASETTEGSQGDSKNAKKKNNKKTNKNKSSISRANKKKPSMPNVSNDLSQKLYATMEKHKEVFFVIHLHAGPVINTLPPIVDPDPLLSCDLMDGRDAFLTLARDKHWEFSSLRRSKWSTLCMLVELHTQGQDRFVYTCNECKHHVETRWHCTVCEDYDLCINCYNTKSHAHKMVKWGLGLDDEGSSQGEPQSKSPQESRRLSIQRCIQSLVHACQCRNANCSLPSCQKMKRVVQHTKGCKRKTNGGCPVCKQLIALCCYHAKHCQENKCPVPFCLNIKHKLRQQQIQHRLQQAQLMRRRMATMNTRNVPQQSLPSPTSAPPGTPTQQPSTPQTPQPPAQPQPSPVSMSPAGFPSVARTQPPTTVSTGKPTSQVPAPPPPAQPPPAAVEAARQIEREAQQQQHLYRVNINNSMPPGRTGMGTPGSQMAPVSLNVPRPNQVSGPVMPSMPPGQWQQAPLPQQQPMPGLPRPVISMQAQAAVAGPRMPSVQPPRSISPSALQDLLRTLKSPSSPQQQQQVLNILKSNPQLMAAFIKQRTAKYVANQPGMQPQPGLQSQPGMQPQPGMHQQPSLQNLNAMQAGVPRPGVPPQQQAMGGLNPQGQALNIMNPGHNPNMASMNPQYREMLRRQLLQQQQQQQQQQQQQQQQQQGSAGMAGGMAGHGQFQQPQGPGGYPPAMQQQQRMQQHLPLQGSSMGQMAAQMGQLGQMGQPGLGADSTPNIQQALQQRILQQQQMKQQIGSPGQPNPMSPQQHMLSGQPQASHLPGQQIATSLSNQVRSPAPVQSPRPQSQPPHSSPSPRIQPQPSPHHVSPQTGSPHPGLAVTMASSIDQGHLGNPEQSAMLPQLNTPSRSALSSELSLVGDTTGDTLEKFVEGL

[2] = tested on: LNCaP C4-2B; assay: Antiproliferative activity against human LNCaP C4-2B cells assessed as inhibition of cell growth by Celltiter-Glo assay; assay type: functional, cell-based
[3] = biological target: T1, CREB-binding protein; conditions: dose 200.0 µM, time 30.0 min
Target sequence in this assay (Q92793 2-2442 limits assumed): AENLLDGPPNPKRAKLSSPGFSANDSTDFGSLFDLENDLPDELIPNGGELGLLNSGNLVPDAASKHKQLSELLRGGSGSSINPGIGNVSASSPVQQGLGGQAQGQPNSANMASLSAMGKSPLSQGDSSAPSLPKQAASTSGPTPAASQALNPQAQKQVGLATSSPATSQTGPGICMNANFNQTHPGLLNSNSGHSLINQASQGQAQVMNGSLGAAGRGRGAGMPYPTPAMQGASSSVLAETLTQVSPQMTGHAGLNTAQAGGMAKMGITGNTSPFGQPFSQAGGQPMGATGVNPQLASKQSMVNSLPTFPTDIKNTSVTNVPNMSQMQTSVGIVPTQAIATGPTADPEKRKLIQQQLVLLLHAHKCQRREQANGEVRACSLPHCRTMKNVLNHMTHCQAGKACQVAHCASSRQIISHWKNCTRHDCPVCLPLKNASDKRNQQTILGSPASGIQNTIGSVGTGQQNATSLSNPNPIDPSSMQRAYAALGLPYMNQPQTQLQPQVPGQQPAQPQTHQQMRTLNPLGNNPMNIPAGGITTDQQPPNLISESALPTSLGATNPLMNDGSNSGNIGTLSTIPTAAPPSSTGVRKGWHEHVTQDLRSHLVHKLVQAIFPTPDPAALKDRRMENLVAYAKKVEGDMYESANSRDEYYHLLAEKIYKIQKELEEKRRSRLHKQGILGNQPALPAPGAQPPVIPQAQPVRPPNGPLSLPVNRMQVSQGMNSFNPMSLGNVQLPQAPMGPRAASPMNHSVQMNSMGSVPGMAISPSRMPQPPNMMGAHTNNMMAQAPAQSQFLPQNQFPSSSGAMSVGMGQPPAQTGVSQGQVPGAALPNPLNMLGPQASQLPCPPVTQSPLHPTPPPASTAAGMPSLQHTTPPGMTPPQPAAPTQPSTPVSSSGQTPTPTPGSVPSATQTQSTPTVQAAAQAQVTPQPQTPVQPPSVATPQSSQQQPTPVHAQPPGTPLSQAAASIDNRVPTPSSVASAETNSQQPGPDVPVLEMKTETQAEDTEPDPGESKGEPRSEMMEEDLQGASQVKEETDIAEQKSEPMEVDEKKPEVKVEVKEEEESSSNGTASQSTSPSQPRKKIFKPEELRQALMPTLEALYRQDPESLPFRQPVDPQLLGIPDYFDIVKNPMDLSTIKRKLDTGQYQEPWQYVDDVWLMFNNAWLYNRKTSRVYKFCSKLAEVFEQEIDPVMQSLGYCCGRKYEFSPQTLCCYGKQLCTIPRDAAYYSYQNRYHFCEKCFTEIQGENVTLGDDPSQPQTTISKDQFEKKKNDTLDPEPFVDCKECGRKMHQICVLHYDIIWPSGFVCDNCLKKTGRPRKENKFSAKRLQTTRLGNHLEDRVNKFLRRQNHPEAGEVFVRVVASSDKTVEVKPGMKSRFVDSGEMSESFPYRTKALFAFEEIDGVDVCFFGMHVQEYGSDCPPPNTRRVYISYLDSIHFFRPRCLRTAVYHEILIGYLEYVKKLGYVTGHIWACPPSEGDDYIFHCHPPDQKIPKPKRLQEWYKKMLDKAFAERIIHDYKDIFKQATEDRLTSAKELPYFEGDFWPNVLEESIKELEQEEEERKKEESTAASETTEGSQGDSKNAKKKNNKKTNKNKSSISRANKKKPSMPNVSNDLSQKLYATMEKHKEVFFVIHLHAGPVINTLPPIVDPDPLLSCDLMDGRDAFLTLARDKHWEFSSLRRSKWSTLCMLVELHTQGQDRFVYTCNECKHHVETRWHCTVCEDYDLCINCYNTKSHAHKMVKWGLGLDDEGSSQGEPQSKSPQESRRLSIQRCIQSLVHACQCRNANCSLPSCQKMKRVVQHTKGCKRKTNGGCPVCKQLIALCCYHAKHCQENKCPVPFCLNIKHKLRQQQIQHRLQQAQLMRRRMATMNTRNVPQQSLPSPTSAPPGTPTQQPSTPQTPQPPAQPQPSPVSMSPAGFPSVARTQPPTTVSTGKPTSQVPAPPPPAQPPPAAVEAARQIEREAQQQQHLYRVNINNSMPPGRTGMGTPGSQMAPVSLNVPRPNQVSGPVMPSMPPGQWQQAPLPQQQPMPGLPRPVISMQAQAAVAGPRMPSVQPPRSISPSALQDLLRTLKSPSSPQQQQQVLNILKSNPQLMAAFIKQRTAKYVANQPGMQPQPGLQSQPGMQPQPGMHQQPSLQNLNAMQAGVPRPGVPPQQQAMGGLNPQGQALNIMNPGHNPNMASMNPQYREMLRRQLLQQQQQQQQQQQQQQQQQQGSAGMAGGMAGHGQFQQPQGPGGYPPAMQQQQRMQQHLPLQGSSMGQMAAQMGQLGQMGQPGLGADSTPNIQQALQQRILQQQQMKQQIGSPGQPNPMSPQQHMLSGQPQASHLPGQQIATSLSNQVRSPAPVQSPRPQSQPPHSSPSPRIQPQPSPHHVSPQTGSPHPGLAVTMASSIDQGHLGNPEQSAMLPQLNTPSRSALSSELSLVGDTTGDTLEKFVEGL

[4] = Apparent permeability across apical to basolateral side in human Caco-2 cells assessed as drug recovery at 10 uM measured after 2 hrs by LC-MS/MS analysis; assay type: ADME, cell-based; conditions: read-out: Drug recovery
[5] = Apparent permeability across basolateral to apical side in human Caco-2 cells assessed as drug recovery at 10 uM measured after 2 hrs by LC-MS/MS analysis; assay type: ADME, cell-based; conditions: read-out: Drug recovery
[6] = biological target: T1, CREB-binding protein; assay: Binding affinity to His6-tagged human CBP bromodomain (1081 to 1197 residues) expressed in Escherichia coli BL21 (DE3) assessed as dissociation constant by ITC analysis
Target sequence in this assay (Q92793 whole entry, the tested form may be a part): as the sequence (Q92793 whole entry, the tested form may be a part) above

[7] = Metabolic stability in rat liver microsomes assessed as parent compound remaining at 1 uM incubated for 45 mins in presence of NADPH by LC-MS/MS analysis; assay type: ADME, Microsome; conditions: read-out: Stability
[8] = Half life in rat liver microsomes at 1 uM incubated for 45 mins in presence of NADPH by LC-MS/MS analysis; assay type: ADME, Microsome
[9] = Intrinsic clearance in rat liver microsomes at 1 uM incubated for 45 mins in presence of NADPH by LC-MS/MS analysis; assay type: ADME, Microsome; conditions: read-out: CLH
[10] = Hepatic clearance in rat liver microsomes at 1 uM incubated for 45 mins in presence of NADPH by LC-MS/MS analysis; assay type: ADME, Microsome
[11] = in vitro; conditions: rat, liver microsomes
Description: Hepatic extraction ratio in rat liver microsomes at 1 uM incubated for 45 mins in presence of NADPH by LC-MS/MS analysis

**Q.** What does the source list for `CCc1ccn2c(C(C)=O)cc(C(=O)Nc3cc(CO)cc(-c4cnn(C)c4)c3F)c2c1`?
**A.** IC50 [1]: 0.0218 µM; IC50 [2]: 50 µM; ΔTm [3]: 6.3 °C

**Q.** What does the source list for `CC(C)NCC(O)COc1ccc(CC(N)=O)cc1` (stereo not given) [ATENOLOL]?
**A.** recovery at 2 h, 10 µM [4]: 94.8%; recovery at 2 h, 10 µM [5]: 94.2%

**Q.** Which IC50 [1] does the source give for `COc1ccc2c(c1)c(C(=O)Nc1cc(C(=O)O)cc(-c3cnn(C)c3)c1F)cn2C(C)=O` here?
**A.** The IC50 was 0.178 µM.

**Q.** And the Kd [6]?
**A.** Its Kd is 0.165 µM.

**Q.** And the remaining at 0.75 h, 1 µM [7]?
**A.** The remaining at 0.75 h, 1 µM was 7.7%.

**Q.** And the half-life at 1 µM [8]?
**A.** Its half-life at 1 µM is 13.1 min.

**Q.** And the CLint scaled at 1 µM [9]?
**A.** Its CLint scaled at 1 µM is 189 mL/min/kg.

**Q.** And the CLhep predicted at 1 µM [10]?
**A.** The CLhep predicted at 1 µM was 42.7 mL/min/kg.

**Q.** And the hepatic extraction ratio at 0.75 h, 1 µM [11]?
**A.** Its hepatic extraction ratio at 0.75 h, 1 µM is 0.774.

**Q.** With `O=C(c1ccc(F)cc1)C1CCN(CCn2c(=O)[nH]c3ccccc3c2=O)CC1` [KETANSERIN] as the molecule, how does the half-life at 1 µM [8] read?
**A.** The half-life at 1 µM was 15.6 min.

**Q.** What about the CLint scaled at 1 µM [9] of the same molecule?
**A.** Its CLint scaled at 1 µM is 159 mL/min/kg.

**Q.** What about the CLhep predicted at 1 µM [10] of the same molecule?
**A.** The CLhep predicted at 1 µM was 41 mL/min/kg.

**Q.** With `CCC(=O)c1cc(C(=O)Nc2cc(CO)cc(-c3cnn(C)c3)c2F)c2cc(O)ccn12` as the molecule, how does the IC50 [1] read?
**A.** The IC50 was 0.0785 µM.

**Q.** And the IC50 [2]?
**A.** The IC50 was 34.9 µM.

**Q.** What about the ΔTm [3] of the same molecule?
**A.** The ΔTm was 11.1 °C.

**Q.** Which results are given for `CC(=O)c1cc(C(=O)Nc2cc(CO)cc(-c3cnn(C4CC4)c3)c2F)c2cc(O)ccn12`?
**A.** IC50 [1]: 0.0248 µM; IC50 [2]: 29 µM; ΔTm [3]: 14.1 °C

**Q.** Which results are given for `CC(=O)c1cc(C(=O)Nc2cc(C(C)O)cc(-c3cnn(C4CC4)c3)c2F)c2cc(OC(=O)N(C)C)ccn12` (stereo not given)?
**A.** IC50 [1]: 0.0262 µM; IC50 [2]: 9.09 µM; ΔTm [3]: 10 °C

**Q.** Which results are given for `COc1ccn2c(C(C)=O)cc(C(=O)Nc3cc(F)cc(-c4cnn(C)c4)c3F)c2c1`?
**A.** IC50 [1]: 0.0696 µM; IC50 [2]: > 50 µM; ΔTm [3]: 6.6 °C

**Q.** Which IC50 [2] does the source give for `COc1ccn2c(C(C)=O)cc(C(=O)Nc3cc(C(F)(F)F)cc(-c4cnn(C)c4)c3F)c2c1` here?
**A.** Its IC50 is greater than 50 µM.

**Q.** What about the ΔTm [3] of the same molecule?
**A.** The ΔTm was 2.7 °C.

**Q.** With `CC(=O)c1cc(C(=O)Nc2cc(CO)cc(-c3cnn(C)c3)c2F)c2cc(OCc3ccccc3)ccn12` as the molecule, how does the IC50 [2] read?
**A.** Its IC50 is 49.7 µM.

**Q.** And the ΔTm [3]?
**A.** Its ΔTm is 3.9 °C.

**Q.** For `COc1ccn2c(C(C)=O)cc(C(=O)Nc3cc(C(N)=O)cc(-c4cnn(C)c4)c3F)c2c1`, which ΔTm [3] is on record?
**A.** Its ΔTm is 2.4 °C.

**Q.** Which IC50 [1] does the source give for `COc1ccn2c(C(C)=O)cc(C(=O)Nc3cc(CO)cc(-c4cnn(C)c4)c3F)c2c1` here?
**A.** Its IC50 is 0.012 µM.

**Q.** What about the IC50 [2] of the same molecule?
**A.** Its IC50 is 9.57 µM.

**Q.** What about the ΔTm [3] of the same molecule?
**A.** Its ΔTm is 8.4 °C.

**Q.** For `COc1ccn2c(C(C)=O)cc(C(=O)Nc3cc(C(=O)O)cc(-c4cnn(C)c4)c3F)c2c1`, which IC50 [1] is on record?
**A.** Its IC50 is 0.0098 µM.

**Q.** And the Kd [6]?
**A.** Its Kd is 0.03 µM.

**Q.** And the remaining at 0.75 h, 1 µM [7]?
**A.** Its remaining at 0.75 h, 1 µM is 100%.

**Q.** And the half-life at 1 µM [8]?
**A.** The half-life at 1 µM was greater than 120 min.

**Q.** What about the ΔTm [3] of the same molecule?
**A.** The ΔTm was 11.4 °C.

**Q.** Which results are given for `CC(=O)c1cc(C(=O)Nc2cc(CO)cc(-c3cnn(C)c3)c2F)c2cc(C)ccn12`?
**A.** IC50 [1]: 0.014 µM; IC50 [2]: > 50 µM; ΔTm [3]: 6.3 °C

**Q.** For `Cn1cc(-c2cc(CO)cc(NC(=O)c3cc(C(=O)C4CC4)n4ccc(O)cc34)c2F)cn1`, which ΔTm [3] is on record?
**A.** Its ΔTm is 2.1 °C.

**Q.** With `CNC(=O)c1cc(C(=O)Nc2cc(CO)cc(-c3cnn(C)c3)c2F)c2cc(O)ccn12` as the molecule, how does the ΔTm [3] read?
**A.** Its ΔTm is 2.4 °C.
